Measurements as given in US20130272963A1, “Cholesterol Efflux Assay Probe Formulations, Methods of Making and Using” (THE OHIO STATE UNIVERSITY, priority 2012, published 2013).

Experiment: Drug loading of CHEAP formulation
Conditions: hydrophobic model drugs loaded into CHEAP
Protocol: The intracellular delivery of hydrophobic drugs was conducted using a CHEAP formulation vehicle. Loading, as well as stability, of the drug-loaded CHEAP formulations was investigated on three different hydrophobic drugs. Rosiglitazone (RSG), Paclitaxel (PAX), and Tamoxifen (TAM) were used as model drugs for loading (FIG. 6A).

SMILES | binding affinity towards the CHEAP formulation
CC(=O)O[C@H]1C(=O)[C@@]2(C)[C@H]([C@H](OC(=O)c3ccccc3)[C@]3(O)C[C@H](OC(=O)[C@H](O)[C@@H](NC(=O)c4ccccc4)c4ccccc4)C(C)=C1C3(C)C)[C@]1(OC(C)=O)CO[C@@H]1C[C@@H]2O [PAX, Paclitaxel] | high binding affinity
CC/C(=C(\c1ccccc1)c1ccc(OCCN(C)C)cc1)c1ccccc1 [TAM, Tamoxifen] | high binding affinity
